PMC3384522 (Bioconjugate Chemistry, 2011)

Assays:
Type in all cases: binding
BSA = BSA (Bos taurus, UniProt P02769); assay: Incubation of probe in 1% BSA monitored by FP; settings: FP absorbance significantly reduced
[1] = biological target: T1, Bacillus anthracis DHPS (BaDHPS) (Bacillus anthracis, UniProt Q81VW8)
[2] = biological target: T1, Bacillus anthracis DHPS (BaDHPS); remark: listed apart in the source

T1 sequence (Q81VW8 1-280): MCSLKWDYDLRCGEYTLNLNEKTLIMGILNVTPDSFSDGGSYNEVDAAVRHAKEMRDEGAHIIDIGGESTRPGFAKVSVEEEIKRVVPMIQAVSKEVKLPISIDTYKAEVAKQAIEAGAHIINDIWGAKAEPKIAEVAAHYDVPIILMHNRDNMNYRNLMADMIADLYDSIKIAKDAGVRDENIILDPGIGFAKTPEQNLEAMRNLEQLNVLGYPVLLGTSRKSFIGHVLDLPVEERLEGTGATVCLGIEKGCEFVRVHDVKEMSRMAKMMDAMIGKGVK
Chain of BSA (P02769 25-607): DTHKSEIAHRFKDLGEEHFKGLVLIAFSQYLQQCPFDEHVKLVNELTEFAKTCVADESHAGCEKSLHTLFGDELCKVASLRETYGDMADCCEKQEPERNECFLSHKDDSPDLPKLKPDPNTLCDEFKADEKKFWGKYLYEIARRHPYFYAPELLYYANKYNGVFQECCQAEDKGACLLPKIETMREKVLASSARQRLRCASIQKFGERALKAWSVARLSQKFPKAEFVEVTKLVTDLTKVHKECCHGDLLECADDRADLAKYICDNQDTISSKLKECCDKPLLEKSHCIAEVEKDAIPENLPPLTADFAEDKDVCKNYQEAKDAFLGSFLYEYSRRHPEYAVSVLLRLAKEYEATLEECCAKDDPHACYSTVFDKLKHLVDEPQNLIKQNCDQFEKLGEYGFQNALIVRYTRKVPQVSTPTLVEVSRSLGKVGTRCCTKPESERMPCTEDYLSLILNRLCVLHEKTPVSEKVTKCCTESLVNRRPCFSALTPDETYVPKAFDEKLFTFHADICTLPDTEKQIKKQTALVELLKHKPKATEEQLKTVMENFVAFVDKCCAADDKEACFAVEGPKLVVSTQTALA

Row | Structure (SMILES) | Non-specific protein binding (FP in 1% BSA) (BSA) | Binding site N (ITC) [1] | ΔH (ITC) [1] [kcal/mol] | Competitive displacement of FP probe 4 from BaDHPS [2]
1 | Nc1nc(NCCOCCOCCNC(=O)c2ccc3c(c2)C(=O)OC32c3ccc(O)cc3Oc3cc(O)ccc32)c(N=O)c(=O)[nH]1 [compound 3] | non-specific protein binder | 1.59 ± 0.0108 | -5.9 ± 0.059 | –
2 | Nc1nc2ncc(CNc3ccc(C(=O)O)cc3)nc2c(=O)[nH]1 [pteroic acid] | – | – | – | able to compete off the FP probe 4
3 | Cc1cc(NS(=O)(=O)c2ccc(N)cc2)no1 [SMX, sulfamethoxazole] | – | – | – | not able to compete off the FP probe 4
4 | CC(C(=O)NCCOCCOCCNC(=O)c1ccc2c(c1)C(=O)OC21c2ccc(O)cc2Oc2cc(O)ccc21)c1nn(C)c2nc(N)[nH]c(=O)c2c1=O (centres unmarked) [compound 4, N-(2-(2-(2-(2-(7-Amino-1-methyl-4,5-dioxo-1,4,5,6-tetrahydropyridazino[3,4-d]pyrimidin-3-yl)propanamido)ethoxy)ethoxy)ethyl)-3',6'-dihydroxy-3-oxo-3H-spiro[isobenzofuran-1,9'-xanthene]-5-carboxamide] | – | 1.09 ± 0.0464 | -2.8 ± 0.159 | –
5 | Nc1ccc(S(N)(=O)=O)cc1 [SIA, sulfanilamide] | – | – | – | not able to compete off the FP probe 4
